Among the data in ChEMBL document CHEMBL4177522, “Effects of new fluorinated analogues of GABA, pregabalin bioisosters, on the ambient level and exocytotic release of [3H]GABA from rat brain nerve terminals” (Bioorg Med Chem, 2017) are Activity values, retold here.

A short description of data set [1]: Effect on ambient level of [3H]GABA in Wistar rat synaptosomes assessed as [3H]GABA level at 100 uM preincubated for 20 mins (reference value: 14.20 +/- 1.03%). The class given is ADME, subcellular, Synaptosome.
The nature of data set [2]: Effect on ambient level of [3H]GABA in Wistar rat synaptosomes assessed as [3H]GABA level at 100 uM preincubated for 20 mins in presence of GAT1 specific blocker NO-711 (reference value: 25.07 +/- 2.1%). The format is ADME, subcellular, Synaptosome.
A further data set is filed under the species Rattus norvegicus. Put plainly: Decrease in KCl-induced exocytotic release of [3H]GABA in Wistar rat synaptosomes at 100 uM preincubated for 20 mins followed by Kcl addition in Ca2+ containing media measured after 5 mins. The class given is functional, subcellular. The arrangement: scale not given: the % may be the effect or the level left.
The nature of data set [3]: Induction of plasma membrane depolarization in Wistar rat synaptosomes at 100 uM by rhodamine 6G based spectrofluorimeteric method. The format is subcellular, Synaptosome.
Data set [4] is described as follows: Induction of plasma membrane hyperpolarization in Wistar rat synaptosomes at 100 uM by rhodamine 6G based spectrofluorimeteric method. The class given is subcellular, Synaptosome.
A short description of data set [5]: Effect on ambient level of L-[3H]glutamate in Wistar rat synaptosomes assessed as L-[3H]glutamate level at 100 uM preincubated for 20 mins (reference value: 24.68 +/- 1.49%). The class given is ADME, subcellular, Synaptosome.

Consider `NC[C@@](O)(CC(=O)O)C(F)(F)F`, for which the Activity is 15.55% in data set [1]; 27.9% in data set [2]; 35% in the data set filed under Rattus norvegicus; “Non-Toxic” in data set [3]; “Non-Toxic” in data set [4]; 22.72% in data set [5].
As to `NC[C@@H](CC(=O)O)C(F)(F)F`, the Activity in data set [1] was 13.35%; in data set [2], 24.86%; in the data set listed under Rattus norvegicus, 26%; in data set [3], “Non-Toxic”; in data set [4] it was “Non-Toxic”; in data set [5], 24.75%.
Turning to `NCC(CC(=O)O)C(F)(F)C(F)F` (racemic), the Activity in data set [1] is 14.63%; in data set [2], 26.6%; in the data set filed under Rattus norvegicus, 33%; in data set [3], “Non-Toxic”; in data set [4], “Non-Toxic”; in data set [5], 25.29%.
For `CC(C)C[C@H](CN)CC(=O)O` [PREGABALIN], the Activity in data set [1] is 14.1%; in data set [2], 24.34%; in the data set filed under Rattus norvegicus it was 15%; in data set [3], “Non-Toxic”; in data set [4], “Non-Toxic”; in data set [5] it was 26.2%.
